Among the data in patent publication US8883782B2, “Spiro-tetracyclic ring compounds as beta-secretase modulators and methods of use” (Amgen Inc., priority 2010, dated 2014) are IC50 values, retold here.

Where two headings read alike, the source gives them in different places. Bounds are passed on as bounds.

In assay [1] the test system is Aβ40 in conditioned medium of cells stably expressing Amyloid Precursor Protein (APP). Nature of the assay: In vitro BACE cell-based assay (Aβ40 in conditioned medium, sandwich ELISA). The essentials: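 Conditioned medium from stably APP-expressing cells treated with compound dose series is assayed for Aβ40 by sandwich ELISA with time-resolved fluorescence detection. IC50 is calculated from percent inhibition of Aβ40 against compound concentration.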
Background: An ELISA detects its analyte on a solid surface through an enzyme-linked reagent.

The target of assay [2] is Beta Secretase enzyme (BACE) (Homo sapiens, UniProt P56817). Nature of the assay: In vitro enzymatic BACE FRET (fluorescence resonance energy transfer) assay. The format is biochemical. The essentials:
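Fluorescence read after Tris quench (pH raised to neutrality) of a one-hour BACE reaction. Buffer: acetate 0.05 M, pH 4.2, with 100 uM genapol and 10% DMSO final; started by adding 50 nM FRET peptide substrate spanning the cleavage site.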

Where [3] appears, read: Homo sapiens, HEK293, average IC50, HEK cells, read-out: HEK cell assay.
Where [4] appears, read: average IC50, enzyme assay, read-out: BACE 1 FRET assay.
The mark [5] stands for this setting: Homo sapiens, HEK293, average IC50, read-out: HEK cell assay.

Chain of Beta Secretase enzyme (BACE) (P56817 46-501, species assumed): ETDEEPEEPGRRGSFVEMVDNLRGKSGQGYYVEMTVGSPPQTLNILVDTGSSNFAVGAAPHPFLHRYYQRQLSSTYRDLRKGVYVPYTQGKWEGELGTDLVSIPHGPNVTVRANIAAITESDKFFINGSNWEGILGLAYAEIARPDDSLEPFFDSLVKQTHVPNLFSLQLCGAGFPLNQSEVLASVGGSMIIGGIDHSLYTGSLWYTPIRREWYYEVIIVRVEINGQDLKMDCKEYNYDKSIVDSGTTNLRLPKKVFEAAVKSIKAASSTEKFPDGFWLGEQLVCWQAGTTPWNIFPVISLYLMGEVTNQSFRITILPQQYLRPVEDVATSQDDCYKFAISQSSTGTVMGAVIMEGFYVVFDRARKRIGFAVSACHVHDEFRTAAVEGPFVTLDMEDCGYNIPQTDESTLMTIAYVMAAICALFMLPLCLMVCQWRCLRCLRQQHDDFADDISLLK

In the case of `NC1=N[C@@]2(CO1)c1cc(-c3cccnc3F)ccc1Oc1cnc(C3=CCCCC3)cc12` [Example 386, (5S)-3-(1-cyclohexen-1-yl)-7-(2-fluoro-3-pyridinyl)spiro[chromeno[2,3-c]pyridine-5,4′-[1,3]oxazol]-2′-amine], the IC50 was found to be 0.0111 µM in assay [1] (setting [3]) and 0.0004 µM in assay [2] (setting [4]).

On to `NC1=N[C@@]2(CO1)c1cc(-c3ccc(F)nc3)ccc1Oc1c(F)cc(OC[C@H]3CC3(F)F)cc12` [Example 261, (4S)-2′-(((1R)-2,2-difluorocyclopropyl)methoxy)-4′-fluoro-7′-(6-fluoro-3-pyridinyl)spiro[1,3-oxazole-4,9′-xanthen]-2-amine], for which the IC50 in assay [1] (setting [5]) came out at 0.0718 µM; in assay [2] (setting [4]), 0.0068 µM.

For the molecule `CC#Cc1cncc(-c2ccc3c(c2)[C@@]2(COC(N)=N2)c2cc(OC)cc(F)c2O3)n1` [Example 723, (4S)-4′-fluoro-2′-methoxy-7′-(6-(1-propyn-1-yl)-2-pyrazinyl)spiro[1,3-oxazole-4,9′-xanthen]-2-amine], the IC50 in assay [1] (setting [5]) was 0.958 µM; in assay [2] (setting [4]), 0.0926 µM.

Consider `NC1=N[C@]2(CO1)c1cc(N3CC[C@@H](F)C3)cc(F)c1Oc1ccc(-c3cncnc3)c(F)c12` [Example 1052, (4R)-1′,5′-difluoro-7′-((3R)-3-fluoro-1-pyrrolidinyl)-2′-(5-pyrimidinyl)spiro[1,3-oxazole-4,9′-xanthen]-2-amine], for which the IC50 in assay [1] (setting [5]) was 0.067 µM; in assay [2] (setting [4]), 0.0383 µM.

`NC1=N[C@]2(CS1)c1cc(-c3cccnc3F)ccc1Oc1c2cc(C2=CCOCC2)nc1F` [Example 998, (5R)-3-(3,6-dihydro-2H-pyran-4-yl)-1-fluoro-7-(2-fluoro-3-pyridinyl)spiro[chromeno[2,3-c]pyridine-5,4′-[1,3]thiazol]-2′-amine]: the IC50 is 0.218 µM in assay [1] (setting [5]) and 0.0135 µM in assay [2] (setting [4]).

With “(6R)-4-((4S)-2-amino-4′-fluoro-7′-(2-fluoro-3-pyridinyl)spiro[1,3-oxazole-4,9′-xanthen]-2′-yl)-6-methyl-5,6-dihydro-2H-pyran-2-one, (6S)-4-((4S)-2-amino-4′-fluoro-7′-(2-fluoro-3-pyridinyl)spiro[1,3-oxazole-4,9′-xanthen]-2′-yl)-6-methyl-5,6-dihydro-2H-pyran-2-one [Example 803]”, the IC50 is 0.015 µM in assay [1] (average IC50, read-out: HEK cell assay) and 0.0008 µM in assay [2] (setting [4]).

In the case of `CC1(C)C=C(c2cc3c(cn2)Oc2ccc(-c4cncnc4)cc2[C@@]32COC(N)=N2)CCO1` [Example 678, (5S)-3-(6,6-dimethyl-3,6-dihydro-2H-pyran-4-yl)-7-(5-pyrimidinyl)spiro[chromeno[2,3-c]pyridine-5,4′-[1,3]oxazol]-2′-amine], the IC50 in assay [1] (average IC50, HEK cells) was found to be 0.008 µM; in assay [2] (BACE 1 FRET assay (uM)) it was 0.0009 µM.

For the molecule `NC1=N[C@@]2(CS1)c1cc(-c3cccnc3F)ccc1Oc1c(F)cc(N3C[C@H]4C[C@@H]3CO4)cc12` [Example 1085, (4S)-4′-fluoro-7′-(2-fluoro-3-pyridinyl)-2′-((1R,4R)-2-oxa-5-azabicyclo[2.2.1]hept-5-yl)spiro[1,3-thiazole-4,9′-xanthen]-2-amine], the figures for the IC50 in assay [1] (setting [5]) and in assay [2] (setting [4]) were 0.023 µM and 0.0003 µM, respectively.

Turning to `COc1cc(F)c2c(c1)[C@]1(CSC(N)=N1)c1cc(-c3cccnc3)ccc1O2` [Example 650, (4S)-4′-fluoro-2′-methoxy-7′-(3-pyridinyl)spiro[1,3-thiazole-4,9′-xanthen]-2-amine], the IC50 was 0.251 µM in assay [1] (setting [3]) and 0.009 µM in assay [2] (setting [4]).

In the case of `CC(C)(C#N)COc1cc(F)c2c(c1)[C@]1(CSC(N)=N1)c1cc(-c3cccnc3F)ccc1O2` [Example 800, 3-(((4S)-2-amino-4′-fluoro-7′-(2-fluoro-3-pyridinyl)spiro[1,3-thiazole-4,9′-xanthen]-2′-yl)oxy)-2,2-dimethylpropanenitrile], the figures for the IC50 in assay [1] (setting [5]) and in assay [2] (setting [4]) were 0.02 µM and 0.0004 µM, respectively.

For the molecule `CC#Cc1cncc(-c2ccc3c(c2)[C@@]2(COC(N)=N2)c2cc(C4=CCOCC4)nc(F)c2O3)c1` [Example 760, (5S)-3-(3,6-dihydro-2H-pyran-4-yl)-1-fluoro-7-(5-(1-propyn-1-yl)-3-pyridinyl)spiro[chromeno[2,3-c]pyridine-5,4′-[1,3]oxazol]-2′-amine], the results for the IC50 in assay [1] (setting [5]) and in assay [2] (setting [4]) were 0.002 µM and 0.0003 µM, respectively.

`NC1=NC2(CO1)c1cc(-c3cccnc3)ccc1Oc1c2cc(C2CCOCC2)nc1F` (stereo not shown) [Example 752, 1-fluoro-7-(3-pyridinyl)-3-(tetrahydro-2H-pyran-4-yl)spiro[chromeno[2,3-c]pyridine-5,4′-[1,3]oxazol]-2′-amine]: the IC50 in assay [1] (setting [5]) was found to be 0.077 µM; in assay [2] (setting [4]), 0.0056 µM.

With `NC1=NC2(CS1)c1cc(-c3cccnc3F)ccc1Oc1c2cc(-c2cccnc2F)nc1F` (stereo not shown) [Example 682, 1-fluoro-3,7-bis(2-fluoro-3-pyridinyl)spiro[chromeno[2,3-c]pyridine-5,4′-[1,3]thiazol]-2′-amine], the IC50 in assay [1] (setting [3]) came to 0.074 µM; in assay [2] (setting [4]) it was 0.0009 µM.

Take `NC1=N[C@]2(CS1)c1cc(-c3cccnc3)c(F)cc1Oc1c(F)cc(C3=CCOCC3)cc12` [Example 882, (4R)-7′-(3,6-dihydro-2H-pyran-4-yl)-3′,5′-difluoro-2′-(3-pyridinyl)spiro[1,3-thiazole-4,9′-xanthen]-2-amine]: the IC50 is at least 10 µM in assay [1] (setting [3]) and 0.617 µM in assay [2] (setting [4]).

For `CC1(COc2cc(F)c3c(c2)[C@]2(COC(N)=N2)c2cc(-c4cccc(C#N)c4)ccc2O3)COC1` [Example 562, 3-((4S)-2-amino-5′-fluoro-7′-((3-methyl-3-oxetanyl)methoxy)spiro[1,3-oxazole-4,9′-xanthen]-2′-yl)benzonitrile], the IC50 in assay [1] (setting [3]) was 0.0058 µM; in assay [2] (setting [4]), 0.002 µM.

As for `COc1nc(-c2cccnc2)cc2c1Oc1ccc(-c3cccnc3)cc1[C@@]21COC(N)=N1` [Example 490, (5S)-1-methoxy-3,7-di-3-pyridinylspiro[chromeno[2,3-c]pyridine-5,4′-[1,3]oxazol]-2′-amine], the IC50 in assay [1] (setting [3]) turned out to be 0.0226 µM; in assay [2] (setting [4]), 0.007 µM.

Turning to `CN(C)c1cc2c(cn1)Oc1ccc(-c3cccnc3F)cc1C21CSC(N)=N1` (stereo not shown) [Example 693, 7-(2-fluoro-3-pyridinyl)-N~3~,N~3~-dimethylspiro[chromeno[2,3-c]pyridine-5,4′-[1,3]thiazole]-2′,3-diamine], the IC50 in assay [1] (setting [3]) came to 0.237 µM; in assay [2] (setting [4]), 0.0105 µM.

For the molecule `COc1ccc(F)c(-c2ccc3c(c2)[C@@]2(COC(N)=N2)c2cc(C4=CCOCC4)cnc2O3)c1` [Example 323, (5S)-3-(3,6-dihydro-2H-pyran-4-yl)-7-(2-fluoro-5-methoxyphenyl)spiro[chromeno[2,3-b]pyridine-5,4′-[1,3]oxazol]-2′-amine], the IC50 amounted to 0.0155 µM in assay [1] (setting [5]) and 0.0014 µM in assay [2] (setting [4]).

Consider `CC(C)(C#N)COc1cc(F)c2c(c1)[C@]1(COC(N)=N1)c1cc(-c3cccnc3)ccc1O2` [Example 257, 3-(((4S)-2-amino-4′-fluoro-7′-(3-pyridinyl)spiro[1,3-oxazole-4,9′-xanthen]-2′-yl)oxy)-2,2-dimethylpropanenitrile], for which the IC50 in assay [1] (setting [5]) is 0.0063 µM; in assay [2] (setting [4]), 0.001 µM.

Consider `Cn1cc(-c2cnc3c(c2)[C@]2(CSC(N)=N2)c2cc(-c4cccnc4)ccc2O3)cn1` [Example 960, (5S)-3-(1-methyl-1H-pyrazol-4-yl)-7-(3-pyridinyl)spiro[chromeno[2,3-b]pyridine-5,4′-[1,3]thiazol]-2′-amine], for which the results for the IC50 in assay [1] (setting [3]) and in assay [2] (setting [4]) were 0.036 µM and 0.0037 µM, respectively.

For `NC1=N[C@@]2(CS1)c1cc(-c3cccnc3F)ccc1Oc1c2cc(-c2cccnc2F)nc1F` [Example 1025, (5S)-1-fluoro-3,7-bis(2-fluoro-3-pyridinyl)spiro[chromeno[2,3-c]pyridine-5,4′-[1,3]thiazol]-2′-amine], the IC50 in assay [1] (setting [5]) came out at 0.141 µM; in assay [2] (setting [4]), 0.001 µM.

In the case of `CC1(COc2cc(F)c3c(c2)[C@]2(COC(N)=N2)c2cc(-c4cnccc4F)ccc2O3)COC1` [Example 604, (4S)-4′-fluoro-7′-(4-fluoro-3-pyridinyl)-2′-((3-methyl-3-oxetanyl)methoxy)spiro[1,3-oxazole-4,9′-xanthen]-2-amine], the IC50 came out at 0.005 µM in assay [1] (setting [3]) and 0.0006 µM in assay [2] (setting [4]).

Turning to `CC#Cc1cnc(F)c(-c2ccc3c(c2)[C@@]2(COC(N)=N2)c2cc(-c4ccnc(F)c4)cnc2O3)c1` [Example 956, (5S)-7-(2-fluoro-5-(1-propyn-1-yl)-3-pyridinyl)-3-(2-fluoro-4-pyridinyl)spiro[chromeno[2,3-b]pyridine-5,4′-[1,3]oxazol]-2′-amine], the values for the IC50 in assay [1] (setting [3]) and in assay [2] (setting [4]) were 0.006 µM and 0.0004 µM, respectively.

For `NC1=N[C@@]2(CS1)c1cc(-c3cccnc3F)ccc1Oc1c(F)cc(N3CCOCC3)cc12` [Example 1069, (4S)-4′-fluoro-7′-(2-fluoro-3-pyridinyl)-2′-(4-morpholinyl)spiro[1,3-thiazole-4,9′-xanthen]-2-amine], the IC50 in assay [1] (setting [5]) amounted to 0.01 µM; in assay [2] (setting [4]) it was 0.0006 µM.

Regarding `NC1=N[C@@]2(CO1)c1cc(OCc3cccnc3)ccc1Oc1ncc(-c3ccnc(F)c3)cc12` [Example 974, (5S)-3-(2-fluoro-4-pyridinyl)-7-(3-pyridinylmethoxy)spiro[chromeno[2,3-b]pyridine-5,4′-[1,3]oxazol]-2′-amine], the IC50 in assay [1] (setting [5]) came out at 2.72 µM; in assay [2] (setting [4]), 0.11 µM.

For the molecule `CC(C)(C#N)COc1cc(F)c2c(c1)[C@@]1(COC(N)=N1)c1cc(-c3cccnc3F)c(F)cc1O2` [Example 863, 3-(((4R)-2-amino-4′,6′-difluoro-7′-(2-fluoro-3-pyridinyl)spiro[1,3-oxazole-4,9′-xanthen]-2′-yl)oxy)-2,2-dimethylpropanenitrile], the IC50 was determined as 2.36 µM in assay [1] (setting [3]) and 0.0801 µM in assay [2] (setting [4]).
